The source of these data is US8637525B2, “Compounds for the reduction of beta-amyloid production” (Bristol-Myers Squibb Company, priority 2009, dated 2014).

Where a name gives a salt, the structure may show the parent alone.

A word on the IC50: it is the concentration at which inhibition is half-maximal.

One assay has as its system Aβ1-42 production. Put plainly: Cellular assay for inhibition of Aβ1-42 production (H4 APP751 SWE clone 8.20). Type of assay: cell-based. Conditions: 19 h, H4 APP751 SWE clone 8.20 cells, 19 h incubation; class symbols; read-out: Activity Rating (Aβ42 cellular IC50). Summed up:
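Viewlux signal read-out; IC50 by curve fit. Sandwich: 565 anti-Aβ42 neoepitope (Wallac conjugate, 0.8 ng/well) + 26D6 anti-N-terminus (APC, 75 ng/well), in Tris-HCl 40 mM pH 7.4/0.2% BSA, o/n 4 °C. Cells exposed to compound 19 h, 37 °C, 5% CO2.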
Turning to `CCN(C)c1nc(Nc2ccc(-n3cnc(Cl)c3)c(OC)c2)nc2c1CCCC2c1ccc(F)cc1` (stereo not shown) [Example 126, N^2-(4-(4-Chloro-1H-imidazol-1-yl)-3-methoxyphenyl)-N^4-ethyl-8-(4-fluorophenyl)-N^4-methyl-5,6,7,8-tetrahydroquinazoline-2,4-diamine], the IC50 is 10 to 100 nM. On the same count and under the same terms, for `CNc1nc(Nc2ccc(-n3cnc(Cl)c3)c(OC)c2)nc2c1CCC2c1ccc(F)c(F)c1` (racemic) [Example 96, N^2-(4-(4-Chloro-1H-imidazol-1-yl)-3-methoxyphenyl)-7-(3,4-difluorophenyl)-N^4-methyl-6,7-dihydro-5H-cyclopenta[d]pyrimidine-2,4-diamine] the value was 1.5 to 9.9 nM; for `CCN(C)c1nc(Nc2ccc(-n3cnc(Cl)c3)c(OC)c2)nc2c1CCC2c1ccccc1` (stereo not shown) [Example 5, N^2-(4-(4-Chloro-1H-imidazol-1-yl)-3-methoxyphenyl)-N^4-ethyl-N^4-methyl-7-phenyl-6,7-dihydro-5H-cyclopenta[d]pyrimidine-2,4-diamine], 1.5 to 9.9 nM; for `COc1cc(Nc2nc3c(c(N4CC5(C4)OCCO5)n2)CCC3c2ccccc2)ccc1-n1cnc(Cl)c1` (stereo not shown) [Example 184, N-(4-(4-chloro-1H-imidazol-1-yl)-3-methoxyphenyl)-7-phenyl-4-(5,8-dioxa-2-azaspiro[3.4]octan-2-yl)-6,7-dihydro-5H-cyclopenta[d]pyrimidin-2-amine], 10 to 100 nM. With `COc1cc(Nc2nc3c(c(N4CCC5(C4)OCCO5)n2)CCC3c2ccccc2)ccc1-n1cnc(Cl)c1` (stereo not shown) [Example 205, N-(4-(4-chloro-1H-imidazol-1-yl)-3-methoxyphenyl)-7-phenyl-4-(1,4-dioxa-7-azaspiro[4.4]nonan-7-yl)-6,7-dihydro-5H-cyclopenta[d]pyrimidin-2-amine], the IC50 was 10 to 100 nM. Same read-out and setting: as for `CNc1nc(Nc2ccc(-n3cnc(Cl)c3)c(OC)c2)nc2c1/C(=N/OC)CC2c1ccccc1` (stereo not shown) [Example 201B, (E)-2-(4-(4-chloro-1H-imidazol-1-yl)-3-methoxyphenylamino)-4-(methylamino)-7-phenyl-6,7-dihydro-5H-cyclopenta[d]pyrimidin-5-one O-methyl oxime], the figure is 10 to 100 nM; as for `COc1cc(Nc2nc3c(c(N4CC[C@@H](F)C4)n2)CCN(S(C)(=O)=O)C3c2ccc(F)cc2)ccc1-n1cnc(Cl)c1` (stereo partly shown) [Example 174], 10 to 100 nM.

As to `COc1cc(Nc2nc(N[C@H](C)C3CC3)c3c(n2)C(c2ccc(F)cc2)OC3)ccc1-n1cnc(Cl)c1` (stereo partly drawn) [Example 81, N2-(4-(4-chloro-1H-imidazol-1-yl)-3-methoxyphenyl)-N4-((R)-1-cyclopropylethyl)-7-(4-fluorophenyl)-5,7-dihydrofuro[3,4-d]pyrimidine-2,4-diamine, TFA], the 50% inhibitory concentration (IC50) fell in the range of 10 to 100 nM.

Regarding `CCNc1nc(Nc2ccc(-n3cnc(Cl)c3)c(OC)c2)nc2c1COCC2c1ccc(C(F)(F)F)cc1` (racemic) [Example 118, N2-(4-(4-chloro-1H-imidazol-1-yl)-3-methoxyphenyl)-N4-ethyl-8-(4-(trifluoromethyl)phenyl)-7,8-dihydro-5H-pyrano[4,3-d]pyrimidine-2,4-diamine, TFA], the IC50 was 10 to 100 nM. Still for that read-out and setting: as for `COc1cc(Nc2nc(NC3CC3)c3c(n2)C(c2ccccc2)CC3)ccc1-n1cnc(Cl)c1` (stereo not shown) [Example 8, N2-(4-(4-chloro-1H-imidazol-1-yl)-3-methoxyphenyl)-N4-cyclopropyl-7-phenyl-6,7-dihydro-5H-cyclopenta[d]pyrimidine-2,4-diamine], the figure is 1.5 to 9.9 nM; as for `CNc1nc(Nc2cccc(C#N)c2)nc2c1CCC2c1ccccc1` (stereo not shown) [Example 233, 3-(4-(methylamino)-7-phenyl-6,7-dihydro-5H-cyclopenta[d]pyrimidin-2-ylamino)benzonitrile], greater than 1000 nM. The same measure, in the same setting: as for `CCNc1nc(Nc2ccc(-n3cnc(Cl)c3)c(OC)c2)nc2c1COCC2c1ccc(C#N)cc1` (stereo not shown) [Example 121A, 4-(2-(4-(4-chloro-1H-imidazol-1-yl)-3-methoxyphenylamino)-4-(ethylamino)-7,8-dihydro-5H-pyrano[4,3-d]pyrimidin-8-yl)benzonitrile], the figure is 1.5 to 9.9 nM; as for `COc1cc(Nc2nc3c(c(N4CC(=O)C4)n2)CCC3c2ccccc2)ccc1-n1cnc(Cl)c1` (stereo not shown) [Example 185, 1-(2-(4-(4-chloro-1H-imidazol-1-yl)-3-methoxyphenylamino)-7-phenyl-6,7-dihydro-5H-cyclopenta[d]pyrimidin-4-yl)azetidin-3-one], 10 to 100 nM. As for `CCNc1nc(Nc2ccc(-n3cnc(C)n3)c(OC)c2)nc2c1COCC2c1ccc(F)cc1` (stereo not shown) [Example 55B, N4-ethyl-8-(4-fluorophenyl)-N2-(3-methoxy-4-(3-methyl-1H-1,2,4-triazol-1-yl)phenyl)-7,8-dihydro-5H-pyrano[4,3-d]pyrimidine-2,4-diamine], the IC50 was 10 to 100 nM. Still for that read-out and setting: for `CNc1nc(Nc2ccc(NC3(C#N)CC3)c(OC)c2)nc2c1CCC2c1ccccc1` (stereo not shown) [Example 248, 1-(2-methoxy-4-(4-(methylamino)-7-phenyl-6,7-dihydro-5H-cyclopenta[d]pyrimidin-2-ylamino)phenylamino)cyclopropanecarbonitrile] the value was greater than 1000 nM; for `COc1cc(Nc2nc3c(c(N4C[C@@H]5C[C@H]4CO5)n2)CCC3c2ccc(F)cc2)ccc1-n1cnc(Cl)c1` (stereo partly drawn) [Example 18, 4-((1S,4S)-2-oxa-5-azabicyclo[2.2.1]heptan-5-yl)-N-(4-(4-chloro-1H-imidazol-1-yl)-3-methoxyphenyl)-7-(4-fluorophenyl)-6,7-dihydro-5H-cyclopenta[d]pyrimidin-2-amine], 10 to 100 nM.

The same assay, now with this note: 19 h, H4 APP751 SWE clone 8.20 cells, 19 h incubation; read-out: Activity Rating (Aβ42 cellular IC50), numeric value.
Regarding `CNc1nc(Nc2ccc(-n3cnc(Cl)c3)c(OC)c2)nc2c1COCC2c1ccc(F)cc1` (stereo not shown) [Example 60A, N2-(4-(4-chloro-1H-imidazol-1-yl)-3-methoxyphenyl)-8-(4-fluorophenyl)-N4-methyl-7,8-dihydro-5H-pyrano[4,3-d]pyrimidine-2,4-diamine], the IC50 is 5.6 nM. Same read-out and setting: as for `CNc1nc(Nc2ccc(-n3cnc(Cl)c3)c(OC)c2)nc2c1CCCC2c1ccccc1` (stereo not shown) [Example 203, N2-(4-(4-chloro-1H-imidazol-1-yl)-3-methoxyphenyl)-N4-methyl-8-phenyl-5,6,7,8-tetrahydroquinazoline-2,4-diamine], the figure is 19 nM.

The same assay, now with this note: H4 APP751 SWE clone 8.20 cells, 19 h incubation; class symbols; read-out: Activity Rating (Aβ42 cellular IC50).
On to `CNc1nc(Nc2ccc(-n3cnc(Cl)c3)c(OC)c2)nc2c1CCCC2c1ccccc1` (stereo not shown) [Example 203A, N2-(4-(4-chloro-1H-imidazol-1-yl)-3-methoxyphenyl)-N4-methyl-8-phenyl-5,6,7,8-tetrahydroquinazoline-2,4-diamine], for which the IC50 was in the range of 1.5 to 9.9 nM. In the case of `CNc1nc(Nc2ccc(-n3cnc(C)n3)c(OC)c2)nc2c1CCC2c1ccc(F)cc1F` (single isomer, unassigned) [Example 193B, 7-(2,4-difluorophenyl)-N2-(3-methoxy-4-(3-methyl-1H-1,2,4-triazol-1-yl)phenyl)-N4-methyl-6,7-dihydro-5H-cyclopenta[d]pyrimidine-2,4-diamine], the half-inhibitory concentration (IC50) was 10 to 100 nM. Still for that read-out and setting: as for `CCNc1nc(Nc2ccc(-n3cnc(Cl)c3)c(OC)c2)nc2c1CCC2(C)c1ccccc1` (stereo not shown) [Example 110B, N2-(4-(4-chloro-1H-imidazol-1-yl)-3-methoxyphenyl)-N4-ethyl-7-methyl-7-phenyl-6,7-dihydro-5H-cyclopenta[d]pyrimidine-2,4-diamine], the figure is 10 to 100 nM; as for `CCC1CCCN1c1nc(Nc2ccc(-n3cnc(Cl)c3)c(OC)c2)nc2c1CCC2c1ccc(F)cc1` (single isomer, unassigned) [Example 23, N-(4-(4-chloro-1H-imidazol-1-yl)-3-methoxyphenyl)-4-(2-ethylpyrrolidin-1-yl)-7-(4-fluorophenyl)-6,7-dihydro-5H-cyclopenta[d]pyrimidin-2-amine], 10 to 100 nM. Take `Cc1ncnn1-c1ccc(Nc2nc3c(c(N4CC(F)(F)C4)n2)CCC3c2ccc(F)cc2)cc1F` (single isomer, unassigned) [Example 16A, 4-(3,3-difluoroazetidin-1-yl)-N-(3-fluoro-4-(5-methyl-1H-1,2,4-triazol-1-yl)phenyl)-7-(4-fluorophenyl)-6,7-dihydro-5H-cyclopenta[d]pyrimidin-2-amine]: the IC50 lay in the range of 1.5 to 9.9 nM. The same measure, in the same setting: for `CNc1nc(Nc2ccc(-n3cnc(Cl)c3)c(OC)c2)nc2c1CCC2c1ccccc1` (single isomer, unassigned) [Example 7A, N^2-(4-(4-chloro-1H-imidazol-1-yl)-3-methoxyphenyl)-N^4-methyl-7-phenyl-6,7-dihydro-5H-cyclopenta[d]pyrimidine-2,4-diamine] the value was 1.5 to 9.9 nM. The same measure, in the same setting: as for `CCNc1nc(Nc2ccc(-n3cnc(Cl)c3)c(OC)c2)nc2c1CN(C(=O)COC)CC2c1ccccc1` (stereo not shown) [Example 133, 1-(2-(4-(4-chloro-1H-imidazol-1-yl)-3-methoxyphenylamino)-4-(ethylamino)-8-phenyl-7,8-dihydropyrido[4,3-d]pyrimidin-6(5H)-yl)-2-methoxyethanone], the figure is 10 to 100 nM.

As for `CCNc1nc(Nc2ccc(-n3cnc(Cl)c3)c(OC)c2)nc2c1COCC2c1ccc(F)c(F)c1` (stereo not shown) [Example 113A, N2-(4-(4-chloro-1H-imidazol-1-yl)-3-methoxyphenyl)-8-(3,4-difluorophenyl)-N4-ethyl-7,8-dihydro-5H-pyrano[4,3-d]pyrimidine-2,4-diamine], the concentration for half-maximal inhibition (IC50) was 1.5 to 9.9 nM. On to `COc1cc(Nc2nc3c(c(N4CC(F)(F)C4)n2)COCC3c2ccc(F)c(F)c2)ccc1-n1cnc(Cl)c1` (stereo not shown) [Example 114A, N-(4-(4-chloro-1H-imidazol-1-yl)-3-methoxyphenyl)-4-(3,3-difluoroazetidin-1-yl)-8-(3,4-difluorophenyl)-7,8-dihydro-5H-pyrano[4,3-d]pyrimidin-2-amine], for which the IC50 lay within 10 to 100 nM. Regarding `COc1cc(Nc2nc(N[C@H](C)C3CC3)c3c(n2)C(c2ccc(F)cc2)CC3)ccc1-n1cnc(Cl)c1` (single isomer, unassigned) [Example 49B], the 50% inhibitory concentration (IC50) was in the range of 10 to 100 nM.
